In patent USRE38825E1, “Glyphosate tolerant plants” (Monsanto Technology LLC, priority 1990, dated 2005):

Key:
[1] = biological target: LBAA glyphosate oxidoreductase variant v.247 (v1v2v3: GLY84, ARG153, ARG334), SEQ ID NO:18 (Ochrobactrum sp. G-1, UniProt D2KI28, H334R/K153R/S2A/S84G); experiment: Kinetic analysis of glyphosate oxidoreductase variant v.247; type: biochemical, bacterial isolate LBAA (Pseudomonas strain LBAA)
Method: The mutagenesis procedure used was that of Mn++-poisoned PCR and the template was a linearized glyphosate oxidoreductase gene plasmid containing the synthetic glyphosate oxidoreductase gene (SEQ ID NO:8). The oligonucleotide primers used were homologous to regions in the vector and flanking the glyphosate oxidoreductase gene. The PCR conditions employed were as follows: 1 minute at 94° C., 2 minutes at 55° C., and 3 minutes at 72° C. and with 35 cycles. A 5:1 ratio of dCTP+dGTP+TTP to dATP was used. The reactions contained MnCl2 at 125, 250, 375, or 500 μM. After the reaction, the amplified product was recloned into a vector containing a weak E. coli promoter. This vector was a pBR327 derivative containing the araBAD promoter and suitable cloning sites. One hundred colonies from this cloning step were then screened in E. coli GB993 for improved glyphosate tolerance and utilization phenotypes in media composed of MOPS minimal medium with glyphosate and Pi or with glyphosate alone, respectively. Growth rates were determined by measuring A550 over a 96 hour period. […] The glyphosate oxidoreductase gene was recloned into the expression vector portion and this phenotype verified. All kinetic analysis was performed on crude E. coli lysates. Putative glyphosate oxidoreductase variant proteins were overexpressed after subcloning the NcoI/HindIII variant glyphosate oxidoreductase gene into PrecA-gene10L expression vector. For overexpression in PrecA-gene10L constructs, GB993 cells containing the vector were induced at a Klett=110-120 in M9 minimal medium with 50 μg/ml nalidixic acid and allowed to grow for 2.5 hours at 37° C. with vigorous shaking. Cells were harvested by centrifugation at 4000 g, 5 minutes at 4° C., and resuspend in 100 mM Tris-HCl, pH 7.1, 1 mM EDTA, 35 mM KCl, 20% glycerol, and 1 mM benzamidine at 3 ml/g cell pellet. Lysates were prepared by breaking the cells in a French press, twice, at 1000 psi. Insoluble debris was removed by centrifugation at 12000 g, 15 minutes at 4° C., and the supernatant was de-salted by passing over a PD-10 column (Sephadex G-25, Pharmacia). The void volume fraction was used as the source of enzyme for kinetic analysis. Protein concentrations were determined using the Bio-Rad protein dye-binding assay. Time and enzyme concentration courses were performed to determine linear ranges. […] Ten minutes was determined to be the optimal time for the enzyme assay using 10 μg lysate. After 10 minutes at 30° C. with shaking, 0.25 ml dinitrophenylhydrazine (DNPH) reagent (0.5 mg/ml in 0.5M HCl) was added and the reaction was allowed to proceed for an additional 5 minutes at 30° C. with shaking. A 1.5M NaOH solution (400 μl) was then added to the assay mix, and the reaction was continued for 5 minutes at 30° C. with shaking. Enzyme activity was determined from the amount of glyoxylate-DNPH adduct formed by measuring A520 against a standard of glyoxylate. Enzyme assays are performed in duplicate on at least two different single colony isolates of a putative glyphosate oxidoreductase variant. To determine Km and Vmax, enzyme assays were performed over a (0.2-2.0)×Km range of glyphosate concentrations. The Km and Vmax were determined from Lineweaver Burk, Eadie-Hofstee and hyperbolic kinetic plots. Vmax was estimated after determining the amount of immunoreactive glyphosate oxidoreductase protein in lysates by immunoblot analysis as described below. Immunoblot analysis was performed following SDS-PAGE and transfer of protein from the gel to nitrocellulose at 500 mA in a Hoeffer transfer apparatus in 25 mM Tris-HCl, 192 mM glycine containing 0.1% SDS and 25% methanol for 1-2 hours. After transfer, the nitrocellulose was incubated with 50 mM Tris-HCl, pH7.5, 0.9% NaCl, 0.01% Tween 20, 0.02% NaN3 containing 2% bovine serum albumin at room temperature with shaking for at least 30 minutes. […]

[2] = system: Pseudomonas sp. strain LBr glyphosate oxidoreductase; experiment: Km of glyphosate oxidoreductase from Pseudomonas sp. strain LBr; type: biochemical
From the text: Using this PCR approach, glyphosate oxidoreductase genes from a number of sources have been isolated. The presence of the glyphosate oxidoreductase activity was confirmed by cloning the glyphosate oxidoreductase gene from chromosomal DNA prepared from Pseudomonas sp. strain LBr (Jacob et al., 1988) and using primers homologous to the N- and C-termini of the LBAA glyphosate oxidoreductase gene and containing the following suitable restriction cloning sites: 5′-[…] ATG-3′ (SEQ ID NO:13) and 5′-[…] AGTAC-3′ (SEQ ID NO:14). Cyclotherm parameters used for these PCR reactions is as follows: • Denature at 94° C. for 1 minute; • Anneal at 60° C. for 2 minutes; • Polymerize at 72° C. for 3 minutes, • 30 cycles, no autoextension, linked to 4° C. incubation. The expected ˜1.3 kb PCR produced was generated and following digestion with NdeI and HindIII, this fragment was cloned into pMON2123 for expression of the encoded enzyme.

O=C(O)CNCP(=O)(O)O [glyphosate, N-phosphonomethyl-glycine]
VmKm ([1]; domain switch experiment, v.247 (v1v2v3), substrate glyphosate): 0.34 | VmKm (Glyp) ([1]; v.247): .23 | lower Km for glyphosate than the wild type glyphosate oxidoreductase ([1]; v.247 versus wild type): 10 fold | app Vm (Glyp) ([1]; v.247, pH 7.4, 30° C.): 0.6 U/mg | Km [2]: 25 mM
